# Test results reported in patent US9283222B2 (priority 2006, dated 2016).
# Target: Recombinant Human Poly(ADP-Ribose) Polymerase (PARP), PARP-1 (Homo sapiens (Human), UniProt P09874)
# Conditions: read-out: PARP-1 (Ki); Table 1; text calls the values EC50s
# Chain of Recombinant Human Poly(ADP-Ribose) Polymerase (PARP), PARP-1 (P09874 whole entry): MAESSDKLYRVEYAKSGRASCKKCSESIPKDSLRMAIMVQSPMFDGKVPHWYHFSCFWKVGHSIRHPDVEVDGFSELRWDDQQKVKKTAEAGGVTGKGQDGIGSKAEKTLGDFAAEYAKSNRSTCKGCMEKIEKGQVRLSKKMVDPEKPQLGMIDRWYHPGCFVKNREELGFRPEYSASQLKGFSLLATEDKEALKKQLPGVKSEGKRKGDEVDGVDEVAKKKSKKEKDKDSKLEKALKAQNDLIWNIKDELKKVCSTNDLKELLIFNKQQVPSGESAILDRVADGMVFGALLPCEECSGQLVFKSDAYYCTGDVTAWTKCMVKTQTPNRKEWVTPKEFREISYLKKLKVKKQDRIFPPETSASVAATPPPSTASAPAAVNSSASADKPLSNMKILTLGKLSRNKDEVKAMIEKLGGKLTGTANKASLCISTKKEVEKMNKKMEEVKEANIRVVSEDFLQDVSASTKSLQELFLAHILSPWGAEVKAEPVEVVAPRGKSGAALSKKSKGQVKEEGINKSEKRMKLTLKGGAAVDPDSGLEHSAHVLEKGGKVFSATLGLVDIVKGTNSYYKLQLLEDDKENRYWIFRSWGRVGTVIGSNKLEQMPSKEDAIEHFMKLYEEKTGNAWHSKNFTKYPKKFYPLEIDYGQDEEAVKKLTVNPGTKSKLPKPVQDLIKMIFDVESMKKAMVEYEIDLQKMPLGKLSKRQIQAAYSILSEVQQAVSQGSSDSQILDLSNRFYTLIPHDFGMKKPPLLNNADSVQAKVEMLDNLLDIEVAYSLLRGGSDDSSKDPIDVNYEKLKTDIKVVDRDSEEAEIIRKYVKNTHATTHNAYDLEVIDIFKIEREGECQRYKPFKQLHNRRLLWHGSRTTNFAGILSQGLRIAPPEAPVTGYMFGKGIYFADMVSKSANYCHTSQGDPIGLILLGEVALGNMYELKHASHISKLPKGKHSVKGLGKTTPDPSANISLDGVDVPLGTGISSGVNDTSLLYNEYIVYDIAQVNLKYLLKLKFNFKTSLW
row,Compound,Ki
1,"O=C(COc1ccccc1)N1CCN(C(=O)c2cc(Cc3n[nH]c(=O)c4c3CCCC4)ccc2F)CC1 [Example 590, 4-(4-fluoro-3-{[4-(phenoxyacetyl)piperazin-1-yl]carbonyl}benzyl)-5,6,7,8-tetrahydrophthalazin-1(2H)-one]",1.9 nM
2,O=C(c1cc(Cc2n[nH]c(=O)c3c2NCCC3)ccc1F)N1CCN(C(=O)C2CCCC2)CC1 [Example 640],0.7 nM
3,"NC(=O)c1cccc(-c2cc(Cc3n[nH]c(=O)c4c3CCCC4)ccc2F)c1 [Example 252, 2′-fluoro-5′-((4-oxo-3,4,5,6,7,8-hexahydrophthalazin-1-yl)methyl)-1,1′-biphenyl-3-carboxamide]",19 nM
4,"O=C(c1cccc(-c2cc(CCc3n[nH]c(=O)c4c3CCCC4)ccc2F)c1)N1CCCC1 [Example 269, 4-(2-(6-fluoro-3′-(pyrrolidin-1-ylcarbonyl)-1,1′-biphenyl-3-yl)ethyl)-5,6,7,8-tetrahydrophthalazin-1(2H)-one]",1050 nM
5,"Cc1cc(C(=O)Nc2cccc(Cc3n[nH]c(=O)c4c3CCCC4)c2)c(C)[nH]1 [Example 202, 2,5-dimethyl-N-(3-((4-oxo-3,4,5,6,7,8-hexahydrophthalazin-1-yl)methyl)phenyl)-1H-pyrrole-3-carboxamide]",93 nM
6,"NC(=O)C1CCN(C(=O)c2cc(Cc3n[nH]c(=O)c4c3CCCC4)ccc2F)CC1 [Example 498, 1-{2-fluoro-5-[(4-oxo-3,4,5,6,7,8-hexahydrophthalazin-1-yl)methyl]benzoyl}piperidine-4-carboxamide]",2.7 nM
7,CN1CCN(C2CCN(C(=O)c3cc(Cc4n[nH]c(=O)c5c4NCCC5)ccc3F)CC2)CC1 [Example 644],3 nM
8,"CC(=O)Nc1cccc(-c2cccc(C(C)Cc3n[nH]c(=O)c4c3CCCC4)c2)c1 (stereo not drawn) [Example 284, N-(3′-(1-methyl-2-(4-oxo-3,4,5,6,7,8-hexahydrophthalazin-1-yl)ethyl)-1,1′-biphenyl-3-yl)acetamide]",2210 nM
9,"O=C(Nc1cccc(CCc2n[nH]c(=O)c3c2CCCC3)c1)C1CCCN(C(=O)OCc2ccccc2)C1 (stereo not drawn) [Example 322, benzyl 3-(((3-(2-(4-oxo-3,4,5,6,7,8-hexahydrophthalazin-1-yl)ethyl)phenyl)amino)carbonyl)piperidine-1-carboxylate]",556 nM

# The remaining lines, values ahead:
row,Ki,Compound
1,55 nM,"Cc1c(O)cccc1NC(=O)c1cccc(Cc2n[nH]c(=O)c3c2CCCC3)c1 [Example 349, N-(3-hydroxy-2-methylphenyl)-3-((4-oxo-3,4,5,6,7,8-hexahydrophthalazin-1-yl)methyl)benzamide]"
2,1.4 nM,"O=C(NC1CCN(C(=O)c2cc(Cc3n[nH]c(=O)c4c3NCCC4)ccc2F)CC1)c1cn[nH]c1 [Example 758, N-(1-{2-fluoro-5-[(5-oxo-1,2,3,4,5,6-hexahydropyrido[2,3-d]pyridazin-8-yl)methyl]benzoyl}piperidin-4-yl)-1H-pyrazole-4-carboxamide]"
3,4 nM,"CC1(C)CC(=O)N(c2cc(Cc3n[nH]c(=O)c4c3CCCC4)ccc2F)C1=O [Example 299, 1-(2-fluoro-5-((4-oxo-3,4,5,6,7,8-hexahydrophthalazin-1-yl)methyl)phenyl)-3,3-dimethylpyrrolidine-2,5-dione]"
4,8 nM,"O=C(c1cc(Cc2n[nH]c(=O)c3c2CCCC3)ccc1F)N1CCN(c2cccc(C(F)(F)F)c2)CC1 [Example 621, 4-[4-fluoro-3-({4-[3-(trifluoromethyl)phenyl]piperazin-1-yl}carbonyl)benzyl]-5,6,7,8-tetrahydrophthalazin-1(2H)-one]"
5,335 nM,"O=c1[nH]nc(CCc2ccccc2)c2c1CCCC2 [Example 255, 4-(2-phenylethyl)-5,6,7,8-tetrahydrophthalazin-1(2H)-one]"
6,3 nM,"CN(C(=O)c1cc(Cc2n[nH]c(=O)c3c2NCCC3)ccc1F)C1CCN(C(=O)c2ccccn2)CC1 [Example 721, 2-fluoro-N-methyl-5-[(5-oxo-1,2,3,4,5,6-hexahydropyrido[2,3-d]pyridazin-8-yl)methyl]-N-[1-(pyridin-2-ylcarbonyl)piperidin-4-yl]benzamide]"
